In patent publication US20240299387A1, “HETEROCYCLIC EGFR INHIBITORS FOR USE IN THE TREATMENT OF CANCER” (Blueprint Medicines Corporation, priority 2021, published 2024):
Like-named read-outs stand apart in the source and are kept apart here.

Key:
[1] = molecular target: T1, EGFR L858R T790M in NCI-H1975 cell line (Homo sapiens, UniProt P00533, L858R/T790M); test: NCI-H1975 pEGFR AlphaLISA assay; type: cell-based; details: NCI-H1975 cells (EGFR L858R T790M), p-EGFR (Tyr1068), 4-5 hours incubation; read-out: Ext pEGFR H1975 GMean IC50 (nM) Protocol: @Pharmaron AlphaLISA (Num)
T1 construct: host or cells: NCI-H1975
Protocol: The NCI-H1975 cells were seeded at 12.5K/well in 22 μL into 384 well opti plate (PerkinElmer, 6007299) and adhering overnight at 37C/5% CO2. On the next day, the test compounds and DMSO control were added into H1975 cell plate followed by incubation at 37C/5% CO2 for 4-5 hours. […] Then 5 μL of a donor bead mix was added to each well followed by overnight incubation at room temperature in dark. On the next day, the plate was read at a compatible plate reader to obtain pEGFR signal. Percent of pEGFR inhibition was plotted against log concentration of compounds to generate IC50 values.

[2] = molecular target: T2, EGFR (L858R T790M C797S) (Homo sapiens, UniProt P00533, C797S/L858R/T790M); test: Biochemical EGFR inhibition assay (Caliper mobility shift), EGFR LRTMCS mutant
T2 construct: purchased SignalChem E10-122VG
Protocol: Reactions proceeded until between 10% to 20% total peptides were phosphorylated at room temperature (25° C.) and were terminated with 35 mM 2,2′,2″,2′″-(ethane-1,2-diyldinitrilo)tetraacetic acid (EDTA). Product was detected using the Caliper mobility shift detection method where the phosphorylated peptide (product) and substrate were electrophoretically separated and measured. Percent activity was plotted against log concentration of compound and points to generate an apparent IC50.

[3] = LRTMCS (PH) IC50 (nM) @ 1 mM ATP (Num)
[4] = read-out: LRTMCS (PH) IC50 (nM) @ 1 mM ATP (Num)

T2 sequence (P00533 25-1210 T790M/C797S/L858R): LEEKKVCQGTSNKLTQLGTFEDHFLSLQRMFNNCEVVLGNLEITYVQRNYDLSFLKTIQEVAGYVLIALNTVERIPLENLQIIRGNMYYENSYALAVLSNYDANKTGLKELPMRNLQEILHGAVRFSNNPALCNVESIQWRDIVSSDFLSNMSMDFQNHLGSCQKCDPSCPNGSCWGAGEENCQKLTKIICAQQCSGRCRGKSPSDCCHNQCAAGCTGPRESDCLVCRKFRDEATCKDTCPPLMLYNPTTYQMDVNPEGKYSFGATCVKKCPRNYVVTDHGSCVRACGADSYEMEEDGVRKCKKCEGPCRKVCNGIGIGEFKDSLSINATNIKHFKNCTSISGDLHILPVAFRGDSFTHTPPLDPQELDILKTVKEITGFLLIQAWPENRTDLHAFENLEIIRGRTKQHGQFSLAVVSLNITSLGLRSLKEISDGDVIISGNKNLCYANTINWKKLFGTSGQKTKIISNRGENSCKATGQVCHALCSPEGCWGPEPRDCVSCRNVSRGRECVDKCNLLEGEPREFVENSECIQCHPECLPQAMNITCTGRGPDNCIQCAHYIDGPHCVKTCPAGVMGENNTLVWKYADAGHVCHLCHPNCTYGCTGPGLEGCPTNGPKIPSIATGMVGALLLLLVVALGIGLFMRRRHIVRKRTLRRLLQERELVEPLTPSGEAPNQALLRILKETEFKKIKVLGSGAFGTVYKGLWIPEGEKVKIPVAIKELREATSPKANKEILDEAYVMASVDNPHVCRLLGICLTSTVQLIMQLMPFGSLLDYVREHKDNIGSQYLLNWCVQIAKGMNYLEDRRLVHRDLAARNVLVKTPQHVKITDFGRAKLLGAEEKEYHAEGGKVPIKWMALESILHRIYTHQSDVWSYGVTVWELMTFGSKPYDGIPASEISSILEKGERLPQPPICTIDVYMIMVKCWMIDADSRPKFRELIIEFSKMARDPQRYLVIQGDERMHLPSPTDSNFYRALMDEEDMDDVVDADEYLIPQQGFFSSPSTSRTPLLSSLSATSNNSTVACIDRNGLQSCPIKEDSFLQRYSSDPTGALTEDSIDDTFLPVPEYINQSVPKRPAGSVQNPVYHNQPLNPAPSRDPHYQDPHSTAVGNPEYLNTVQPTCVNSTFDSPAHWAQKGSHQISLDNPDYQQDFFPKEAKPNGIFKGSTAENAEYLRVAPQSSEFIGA
T1 sequence (P00533 25-1210 T790M/L858R): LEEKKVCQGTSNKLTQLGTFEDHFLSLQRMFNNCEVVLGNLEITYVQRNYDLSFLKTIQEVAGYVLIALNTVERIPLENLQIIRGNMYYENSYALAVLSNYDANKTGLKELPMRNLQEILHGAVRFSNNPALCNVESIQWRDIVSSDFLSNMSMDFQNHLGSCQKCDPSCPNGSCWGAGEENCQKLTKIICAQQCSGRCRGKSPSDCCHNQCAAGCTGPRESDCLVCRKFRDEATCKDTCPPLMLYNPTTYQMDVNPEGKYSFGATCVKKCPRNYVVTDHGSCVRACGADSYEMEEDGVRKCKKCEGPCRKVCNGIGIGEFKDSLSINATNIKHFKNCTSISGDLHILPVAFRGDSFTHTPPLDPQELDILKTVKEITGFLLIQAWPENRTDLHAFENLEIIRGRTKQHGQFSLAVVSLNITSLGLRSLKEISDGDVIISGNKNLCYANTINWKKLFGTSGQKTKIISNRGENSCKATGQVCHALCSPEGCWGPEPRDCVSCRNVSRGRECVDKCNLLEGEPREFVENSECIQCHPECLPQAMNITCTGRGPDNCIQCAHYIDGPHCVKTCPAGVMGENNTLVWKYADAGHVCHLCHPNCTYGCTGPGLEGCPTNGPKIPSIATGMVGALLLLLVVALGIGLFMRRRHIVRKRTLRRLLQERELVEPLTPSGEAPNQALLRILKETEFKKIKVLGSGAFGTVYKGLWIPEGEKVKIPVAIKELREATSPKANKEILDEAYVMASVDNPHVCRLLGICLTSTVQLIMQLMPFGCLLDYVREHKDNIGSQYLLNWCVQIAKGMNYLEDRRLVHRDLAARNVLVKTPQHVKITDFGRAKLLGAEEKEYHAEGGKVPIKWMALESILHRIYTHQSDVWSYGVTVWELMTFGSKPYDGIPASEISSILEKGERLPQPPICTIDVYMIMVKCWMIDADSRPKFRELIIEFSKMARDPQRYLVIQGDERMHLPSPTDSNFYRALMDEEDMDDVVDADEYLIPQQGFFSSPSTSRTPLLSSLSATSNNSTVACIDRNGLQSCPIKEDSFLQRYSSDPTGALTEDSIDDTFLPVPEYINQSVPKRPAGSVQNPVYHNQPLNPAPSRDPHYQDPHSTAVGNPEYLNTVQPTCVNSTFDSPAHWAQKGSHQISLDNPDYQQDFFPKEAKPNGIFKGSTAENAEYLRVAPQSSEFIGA

SMILES | IC50 [1] | IC50 [2, 3] | IC50 [2, 4]
CC(C)c1cnc(C(N)=O)c2cnc(Nc3ccnc(N4CC[C@@H](O)[C@@](C)(F)C4)n3)cc12 (single isomer, unassigned) [Example 61, 6-((2-((3S,4R)-3-fluoro-4-hydroxy-3-methylpiperidin-1-yl)pyrimidin-4-yl)amino)-4-isopropyl-2,7-naphthyridine-1-carboxamide or 6-((2-((3R,4S)-3-fluoro-4-hydroxy-3-methylpiperidin-1-yl)pyrimidin-4-yl)amino)-4-isopropyl-2,7-naphthyridine-1-carboxamide] | > 50 nM | 20 to 30 nM | –
CC(C)c1ccc(OCc2cn(C)nn2)c2cnc(Nc3ccnc(N4CC[C@@H](O)[C@@](C)(F)C4)n3)cc12 [Example 10, (3S,4R)-3-fluoro-1-(4-((5-isopropyl-8-((1-methyl-1H-1,2,3-triazol-4-yl)methoxy)isoquinolin-3-yl)amino)pyrimidin-2-yl)-3-methylpiperidin-4-ol] | 30 to 50 nM | < 15 nM | –
CC(C)c1ccc(OCCn2cnnc2)c2cnc(Nc3ccnc(N4CC[C@H]5COC[C@H]54)n3)cc12 (single isomer, unassigned) [Example 51] | > 50 nM | – | 20 to 30 nM
[2H]C([2H])([2H])O[C@H]1CCN(c2nccc(Nc3cc4c(C(C)C)ccc(OC[C@H]5CCC(=O)N5C)c4cn3)n2)C[C@H]1F [Example 46, (R)-5-(((3-((2-((3R,4S)-3-fluoro-4-(methoxy-d3)piperidin-1-yl)pyrimidin-4-yl)amino)-5-isopropylisoquinolin-8-yl)oxy)methyl)-1-methylpyrrolidin-2-one] | > 50 nM | 15 to 20 nM | –
CC(C)c1cnc(C(=O)N[C@H]2C[C@H](O)C2)c2cnc(Nc3ccnc(N4CC[C@@H](O)[C@@](C)(F)C4)n3)cc12 [Example 79, 6-((2-((3S,4R)-3-fluoro-4-hydroxy-3-methylpiperidin-1-yl)pyrimidin-4-yl)amino)-N-((1r,3r)-3-hydroxycyclobutyl)-4-isopropyl-2,7-naphthyridine-1-carboxamide] | 30 to 50 nM | < 15 nM | –
CC(C)c1cnc(C(=O)NC2COC2)c2cnc(Nc3ccnc(N4CC[C@@H](O)[C@@](C)(F)C4)n3)cc12 [Example 60, 6-((2-((3S,4R)-3-fluoro-4-hydroxy-3-methylpiperidin-1-yl)pyrimidin-4-yl)amino)-4-isopropyl-N-(oxetan-3-yl)-2,7-naphthyridine-1-carboxamide] | 30 to 50 nM | 15 to 20 nM | –
CO[C@H]1CCN(c2nccc(Nc3cc4c(C(C)C)ccc(OCCCNC(C)=O)c4cn3)n2)C[C@@H]1O (single isomer, unassigned) [Example 58, N-(3-((3-((2-((3S,4S)-3-hydroxy-4-methoxypiperidin-1-yl)pyrimidin-4-yl)amino)-5-isopropylisoquinolin-8-yl)oxy)propyl)acetamide or N-(3-((3-((2-((3R,4R)-3-hydroxy-4-methoxypiperidin-1-yl)pyrimidin-4-yl)amino)-5-isopropylisoquinolin-8-yl)oxy)propyl)acetamide] | 20 to 30 nM | < 15 nM | –
CC(C)c1ccc(OC[C@H]2CN(C)C(=O)O2)c2cnc(Nc3ccnc(N4CCC(C)(O)CC4)n3)cc12 [Example 16, (R)-5-(((3-((2-(4-hydroxy-4-methylpiperidin-1-yl)pyrimidin-4-yl)amino)-5-isopropylisoquinolin-8-yl)oxy)methyl)-3-methyloxazolidin-2-one] | > 50 nM | 20 to 30 nM | –
CO[C@H]1C[C@@H](NC(=O)c2ncc(C(C)C)c3cc(Nc4ccnc(N5CC[C@@H](O)[C@@](C)(F)C5)n4)ncc23)C1 [Example 73, 6-((2-((3S,4R)-3-fluoro-4-hydroxy-3-methylpiperidin-1-yl)pyrimidin-4-yl)amino)-4-isopropyl-N-((1s,3s)-3-methoxycyclobutyl)-2,7-naphthyridine-1-carboxamide] | 20 to 30 nM | < 15 nM | –
[2H]C([2H])([2H])O[C@@H]1CCN(c2nccc(Nc3cc4c(C(C)C)ccc(OCCn5cnnc5)c4cn3)n2)C[C@@H]1F [Example 45, 8-(2-(4H-1,2,4-triazol-4-yl)ethoxy)-N-(2-((3S,4R)-3-fluoro-4-(methoxy-d3)piperidin-1-yl)pyrimidin-4-yl)-5-isopropylisoquinolin-3-amine] | > 50 nM | 15 to 20 nM | –
COCCNC(=O)c1ncc(C(C)C)c2cc(Nc3ccnc(N4CC[C@@H](O)[C@@](C)(F)C4)n3)ncc12 [Example 66, 6-((2-((3S,4R)-3-fluoro-4-hydroxy-3-methylpiperidin-1-yl)pyrimidin-4-yl)amino)-4-isopropyl-N-(2-methoxyethyl)-2,7-naphthyridine-1-carboxamide] | > 50 nM | 20 to 30 nM | –
CC(C)c1cnc(C(=O)NC2CN(CCF)C2)c2cnc(Nc3ccnc(N4CC[C@@H](O)[C@@](C)(F)C4)n3)cc12 [Example 80, 6-((2-((3S,4R)-3-fluoro-4-hydroxy-3-methylpiperidin-1-yl)pyrimidin-4-yl)amino)-N-(1-(2-fluoroethyl)azetidin-3-yl)-4-isopropyl-2,7-naphthyridine-1-carboxamide] | 20 to 30 nM | < 15 nM | –
CC(=O)N1CC(COc2cccc3cc(Nc4ccnc(N5C[C@@H](F)[C@@H](O)C(C)(C)C5)n4)ncc23)C1 (single isomer, unassigned) [Example 42, 1-(3-(((3-((2-((4S,5R)-5-fluoro-4-hydroxy-3,3-dimethylpiperidin-1-yl)pyrimidin-4-yl)amino)isoquinolin-8-yl)oxy)methyl)azetidin-1-yl)ethenone or 1-(3-(((3-((2-((4R,5S)-5-fluoro-4-hydroxy-3,3-dimethylpiperidin-1-yl)pyrimidin-4-yl)amino)isoquinolin-8-yl)oxy)methyl)azetidin-1-yl)ethenone] | > 50 nM | 20 to 30 nM | –
CC(C)c1ccc(OCCn2cncn2)c2cnc(Nc3ccnc(N4CCC(C)(O)CC4)n3)cc12 [Example 15, 1-(4-((8-(2-(1H-1,2,4-triazol-1-yl)ethoxy)-5-isopropylisoquinolin-3-yl)amino)pyrimidin-2-yl)-4-methylpiperidin-4-ol] | 30 to 50 nM | < 15 nM | –

Continued, values first:

IC50 [1] | IC50 [2, 3] | IC50 [2, 4] | SMILES
> 50 nM | 15 to 20 nM | – | CC(C)c1ccc(OC[C@H]2COC(=O)N2C)c2cnc(Nc3ccnc(N4CC[C@@](C)(O)[C@@H](F)C4)n3)cc12 (single isomer, unassigned) [Example 22]
< 10 nM | – | < 15 nM | CC(C)c1ccc(OC[C@@H]2CC(=O)N(C)C2)c2cnc(Nc3ccnc(N4CC[C@@H](O)[C@@](C)(F)C4)n3)cc12 (single isomer, unassigned) [Example 21]
> 50 nM | 20 to 30 nM | – | CC(=O)N1CC(COc2ccc(C(C)C)c3cc(Nc4ccnc(N5CC[C@@](C)(O)[C@@H](F)C5)n4)ncc23)C1 [Example 11, 1-(3-(((3-((2-((3S,4R)-3-fluoro-4-hydroxy-4-methylpiperidin-1-yl)pyrimidin-4-yl)amino)-5-isopropylisoquinolin-8-yl)oxy)methyl)azetidin-1-yl)ethanone]
> 50 nM | 15 to 20 nM | – | CC(C)c1ccc(OCCc2ccnn2C)c2cnc(Nc3ccnc(N4CC[C@](C)(O)[C@H](F)C4)n3)cc12 [Example 34, (3R,4S)-3-fluoro-1-(4-((5-isopropyl-8-(2-(1-methyl-1H-pyrazol-5-yl)ethoxy)isoquinolin-3-yl)amino)pyrimidin-2-yl)-4-methylpiperidin-4-ol]
30 to 50 nM | < 15 nM | – | CO[C@@H]1CCN(c2nccc(Nc3cc4c(C(C)C)ccc(OCC5CN(C(C)=O)C5)c4cn3)n2)C[C@@H]1O (single isomer, unassigned) [Example 56, 1-(3-(((3-((2-((3S,4R)-3-hydroxy-4-methoxypiperidin-1-yl)pyrimidin-4-yl)amino)-5-isopropylisoquinolin-8-yl)oxy)methyl)azetidin-1-yl)ethan-1-one or 1-(3-(((3-((2-((3R,4S)-3-hydroxy-4-methoxypiperidin-1-yl)pyrimidin-4-yl)amino)-5-isopropylisoquinolin-8-yl)oxy)methyl)azetidin-1-yl)ethan-1-one]
30 to 50 nM | 15 to 20 nM | – | CC(C)c1ccc(OC[C@@H]2CCC(=O)N2C)c2cnc(Nc3ccnc(N4CC[C@](C)(O)[C@H](F)C4)n3)cc12 [Example 33, (S)-5-(((3-((2-((3R,4S)-3-fluoro-4-hydroxy-4-methylpiperidin-1-yl)pyrimidin-4-yl)amino)-5-isopropylisoquinolin-8-yl)oxy)methyl)-1-methylpyrrolidin-2-one]
< 10 nM | < 15 nM | – | CC(=O)N1CC(COc2ccc(C(C)C)c3cc(Nc4ccnc(N5CC[C@@H](O)[C@@](C)(F)C5)n4)ncc23)C1 [Example 8, 1-(3-(((3-((2-((3S,4R)-3-fluoro-4-hydroxy-3-methylpiperidin-1-yl)pyrimidin-4-yl)amino)-5-isopropylisoquinolin-8-yl)oxy)methyl)azetidin-1-yl)ethan-1-one]
